Laboratory results published in patent publication US20020183313A1, “1,4-benzodiazepinones and their uses as CCK antagonists” (Fujisawa Pharmaceutical Co., Ltd., priority 1996, published 2002).

Row | SMILES | melting point
1 | COc1cccc(NC(=O)NC2N=C(C)c3cccc(C)c3N(CC(=O)N3CC4CCC(CC4)C3)C2=O)c1 (racemic) | 169.6 to 170.7 °C
2 | Cc1cccc(NC(=O)NC2N=C(C3CC3)c3cccc(C)c3N(CC(=O)N3CCCCCCC3)C2=O)c1 (racemic) | 177.7 to 179.2 °C
3 | Cc1cccc2c1N(CCO)C(=O)C(NC(=O)Nc1cccc(-c3nnn[nH]3)c1)N=C2C1CCCCC1 (racemic) [Example 21-2, N-[(3RS)-5-Cyclohexyl-2,3-dihydro-1-(2-hydroxyethyl)-9-methyl-2-oxo-1H-1,4-benzodiazepin-3-yl]-N′-[3-(tetrazol-5-yl)phenyl]urea] | 223.5 to 224.2 °C
4 | CC(C)c1cccc2c1N(CC(=O)N1CC3CCC(CC3)C1)C(=O)C(NC(=O)Nc1cccc(-c3nnn[nH]3)c1)N=C2c1ccccc1F (racemic) | 212.2 to 222.1 °C
5 | CC1=NC(NC(=O)Nc2cccc(Cl)c2)C(=O)N(CC(=O)N2CC3CCC(CC3)C2)c2c(C)cccc21 (racemic) | 181.2 to 185.1 °C
6 | Cc1cccc(NC(=O)NC2N=C(C3CC3)c3cccc(C)c3N(CC(=O)N3CC4CCC(CC4)C3)C2=O)c1 (racemic) | 172 to 174.4 °C
7 | Cc1cccc2c1N(CC(=O)N1CC3CCC(CC3)C1)C(=O)C(NC(=O)Nc1cccc(C=O)c1)N=C2c1ccccc1F (racemic) | 236.8 to 242.1 °C
8 | Cc1ccccc1C(=O)CN1C(=O)C(NC(=O)Nc2cccc(-c3nnn[nH]3)c2)N=C(C2CCCCC2)c2cccc(C)c21 (racemic) [24(1), N-[(3RS)-5-Cyclohexyl-9-methyl-2,3-dihydro-1-(2-methylphenacyl)-2-oxo-1H-1,4-benzodiazepin-3-yl]-N′-[3-(tetrazol-5-yl)phenyl]urea] | 165 to 176.6 °C
9 | Cc1cccc2c1N(CC(=O)C1CC1)C(=O)C(NC(=O)Nc1cccc(-c3nnn[nH]3)c1)N=C2C1CCCCC1 (racemic) [Example 47, N-[(3RS)-5-Cyclohexyl-1-cyclopropylcarbonylmethyl-2,3-dihydro-9-methyl-2-oxo-1H-1,4-benzodiazepin-3-yl]-N′-[3-(tetrazol-5-yl)phenyl]urea] | 227.1 to 233.2 °C
10 | CC(=O)OCC1=NC(NC(=O)Nc2cccc(C)c2)C(=O)N(CC(=O)N2CC3CCC(CC3)C2)c2c(C)cccc21 (racemic) | 133 to 134.5 °C
11 | CC1=NC(NC(=O)Nc2cccc(N(C)C)c2)C(=O)N(CC(=O)N2CC3CCC(CC3)C2)c2c(C)cccc21.Cl (racemic) | 190.9 to 193.1 °C
12 | CC(=NO)c1cccc(NC(=O)NC2N=C(c3ccccc3F)c3cccc(C)c3N(CC(=O)N3CC4CCC(CC4)C3)C2=O)c1 (racemic) | 199.1 to 207.8 °C
13 | Cc1cccc(NC(=O)NC2N=C(CN(C)C)c3cccc(C)c3N(CC(=O)N3CCCCCCC3)C2=O)c1 (racemic) [71-3(1), N-[(3RS)-1-(azacyclooctan-1-yl)carbonylmethyl-2,3-dihydro-5-(N,N-dimethylamino)methyl-9-methyl-2-oxo-1H-1,4-benzodiazepin-3-yl]-N′-(3-methylphenyl)urea] | 147.9 to 149.1 °C
14 | Cc1cccc2c1N(C)C(=O)C(NC(=O)Nc1cccc(-c3nnn[nH]3)c1)N=C2C1CCCCC1 (racemic) [17(1), N-[(3RS)-5-Cyclohexyl-2,3-dihydro-1,9-dimethyl-2-oxo-1H-1,4-benzodiazepin-3-yl]-N′-[3-(tetrazol-5-yl)phenyl]urea] | 198.9 to 200.7 °C
15 | CC(=O)N(C(C)=O)c1ccccc1C(=O)CN1C(=O)C(NC(=O)Nc2cccc(-c3nnn[nH]3)c2)N=C(c2ccccc2F)c2cccc(C)c21 (racemic) | 192 to 216.6 °C (dec.)
16 | Cc1cccc(NC(=O)NC2N=C(CN3CC4CCC(CC4)C3)c3cccc(C)c3N(C)C2=O)c1 (racemic) | 145.6 to 149.2 °C
17 | Cc1ccccc1C(=O)CN1C(=O)C(NC(=O)Nc2cccc(C(=O)O)c2)N=C(c2ccccc2F)c2cccc(C)c21 (racemic) | 168.1 to 176.3 °C
18 | Cc1cccc2c1N(Cc1c[nH]cn1)C(=O)C(NC(=O)Nc1cccc(-c3nnn[nH]3)c1)N=C2C1CCCCC1 (racemic) [Example 49, N-[(3RS)-5-Cyclohexyl-2,3-dihydro-1-(imidazol-4-yl)methyl-9-methyl-2-oxo-1H-1,4-benzodiazepin-3-yl]-N′-[3-(tetrazol-5-yl)phenyl]urea] | 168.2 to 179.2 °C
19 | Cc1cccc2c1N(CC(=O)c1ccccc1OCC(=O)O)C(=O)C(NC(=O)Nc1cccc(-c3nnn[nH]3)c1)N=C2c1ccccc1F (racemic) | 109.6 to 113 °C
20 | CC(=O)OCCN1C(=O)C(NC(=O)Nc2cccc(-c3nnn[nH]3)c2)N=C(C2CCCCC2)c2cccc(C)c21 (racemic) [Example 21-1, N-[(3RS)-1-(2-Acetoxyethyl)-5-cyclohexyl-2,3-dihydro-9-methyl-2-oxo-1H-1,4-benzodiazepin-3-yl]-N′-[3-(tetrazol-5-yl)phenyl]urea] | 165.2 to 168.4 °C
21 | Cc1ccccc1C(=O)CN1C(=O)C(NC(=O)Nc2cccc(-c3nnn[nH]3)c2)N=C(c2ccccc2F)c2cccc(C)c21 (racemic) | 215.8 to 220.3 °C
22 | Cc1cccc(NC(=O)NC2N=C(CC3CCCCC3)c3ccccc3N(CC(=O)N3CC4CCC(CC4)C3)C2=O)c1 (racemic) | 164 to 166 °C
23 | Cc1cccc2c1N(Cc1ccccn1)C(=O)C(NC(=O)Nc1cccc(-c3nnn[nH]3)c1)N=C2c1ccccc1F (racemic) | 173.9 to 182 °C
24 | CC(C)C1=NC(NC(=O)NC2CCCCC2)C(=O)N(CC(=O)N2CC3CCC(CC3)C2)c2ccccc21 (racemic) | 138 to 140 °C
25 | Cc1ccccc1C(=O)CN1C(=O)C(NC(=O)c2cc3ccccc3[nH]2)N=C(C2CCCCC2)c2cccc(C)c21 (racemic) [24(2), (3RS)-5-Cyclohexyl-2,3-dihydro-3-(indol-2-yl)carbonylamino-9-methyl-1-(2-methylphenacyl)-1H-1,4-benzodiazepin-2-one] | 126.7 to 145.2 °C

Next, values leading:

Row | melting point | SMILES
26 | 171.3 to 174.6 °C | CC1=NC(NC(=O)Nc2cccc(C)c2)C(=O)N(CC(=O)C2CCCCCC2)c2c(C)cccc21 (racemic) [Example 63, N-[(3RS)-1-Cycloheptylcarbonylmethyl-2,3-dihydro-5,9-dimethyl-2-oxo-1H-1,4-benzodiazepin-3-yl]-N′-(3-methylphenyl)urea]
27 | 225 to 229 °C | CC1=NC(NC(=O)Nc2cccc(C)c2)C(=O)N(Cc2ncccc2C)c2ccccc21 (racemic) [8(1), N-[(3RS)-2,3-dihydro-5-methyl-1-(3-methylpyridin-2-yl)methyl-2-oxo-1H-1,4-benzodiazepin-3-yl]-N′-(3-methylphenyl)urea]
28 | 134 to 135 °C | CSc1cccc(NC(=O)NC2N=C(C(C)C)c3ccccc3N(CC(=O)N3CC4CCC(CC4)C3)C2=O)c1 (racemic)
29 | 130.1 to 133 °C | CCC1=NC(NC(=O)Nc2cccc(C)c2)C(=O)N(CC(=O)N2CC3CCC(CC3)C2)c2c(C)cccc21 (racemic)
30 | 216.5 to 218.7 °C | CC1=NC(NC(=O)Nc2cccc(C)c2)C(=O)N(CC(=O)N2CC3CCC(CC3)C2)c2c1cccc2N(C)C.Cl (racemic)
31 | 221.7 to 224.2 °C | CC1=NC(NC(=O)Nc2cccc(C)c2)C(=O)N(CC(=O)N2CCN(CCO)CC2)c2c(C)cccc21 (racemic) [48-3(14), N-[(3RS)-2,3-Dihydro-1-[4-(2-hydroxyethyl)piperazin-1-yl]carbonylmethyl-5,9-dimethyl-2-oxo-1H-1,4-benzodiazepin-3-yl]-N′-(3-methylphenyl)urea]
32 | 131.7 to 132.8 °C | Cc1cccc(NC(=O)NC2N=C(C(C)C)c3cccc(C)c3N(CC(=O)N3CCCCCCC3)C2=O)c1 (racemic) [Example 67, N-[(3RS)-1-(Azacyclooctan-1-yl)carbonylmethyl-2,3-dihydro-5-isopropyl-9-methyl-2-oxo-1H-1,4-benzodiazepin-3-yl]-N′-(3-methylphenyl)urea]
33 | 215 to 218 °C | CC(=O)c1sccc1CN1C(=O)C(NC(=O)Nc2cccc(C)c2)N=C(CC(C)C)c2ccccc21 (racemic) [Example 6(3), N-[(3RS)-2,3-dihydro-5-(2-methylpropyl)-1-(2-methylcarbonylthiophen-3-yl)methyl-2-oxo-1,4-benzodiazepin-3-yl]-N′-(3-methylphenyl)urea]
34 | 128.4 to 136.2 °C | CC1=NC(NC(=O)Nc2cccc(C)c2)C(=O)N(CC(=O)c2ccccc2C)c2c(C)cccc21 (racemic) [Example 37, N-[(3RS)-2,3-Dihydro-5,9-dimethyl-1-(2-methylphenacyl)-2-oxo-1H-1,4-benzodiazepin-3-yl]-N′-(3-methylphenyl)urea]
35 | 160.4 to 180.7 °C (dec.) | Cc1cccc2c1N(CC(=O)C(C)(C)C)C(=O)C(NC(=O)Nc1cccc(-c3nnn[nH]3)c1)N=C2c1ccccc1F (racemic)
36 | 190 to 195 °C | CC(=O)c1sccc1CN1C(=O)C(NC(=O)Nc2cccc(C)c2)N=C(CCC(C)C)c2ccccc21 (racemic) [9(2), N-[(3RS)-1-(2-acetylthiophen-3-yl)methyl-2,3-dihydro-5-(3-methylbutyl)-2-oxo-1H-1,4-benzodiazepin-3-yl]-N′-(3-methylphenyl)urea]
37 | 199 to 208 °C | CC(=O)c1ccccc1CN1C(=O)C(NC(=O)Nc2cccc(-c3nnn[nH]3)c2)N=C(C2CCCCC2)c2cccc(C)c21 (racemic) [Example 51, N-[(3RS)-1-(2-acetylbenzyl)-5-cyclohexyl-2,3-dihydro-9-methyl-2-oxo-1H-1,4-benzodiazepin-3-yl]-N′-[3-(tetrazol-5-yl)phenyl]urea]
38 | 126.1 to 127.7 °C | CC(=O)CN1C(=O)C(NC(=O)Nc2cccc(C)c2)N=C(C)c2cccc(C)c21 (racemic) [Example 46, N-[(3RS)-2,3-Dihydro-5,9-dimethyl-1-methylcarbonylmethyl-2-oxo-1H-1,4-benzodiazepin-3-yl]-N′-(3-methylphenyl)urea]
39 | 121 to 123 °C | CCCCC1=NC(NC(=O)Nc2cccc(C)c2)C(=O)N(CC(=O)N2CC3CCC(CC3)C2)c2ccccc21 (racemic)
40 | 219 to 221 °C (dec.) | CC(=O)c1sccc1CN1C(=O)C(NC(=O)Nc2cccc(C)c2)N=C(C(C)C)c2ccccc21 (racemic) [Example 2, N-[(3RS)-1-(2-acetylthiophen-3-yl)methyl-2,3-dihydro-5-isopropyl-2-oxo-1H-1,4-benzodiazepin-3-yl]-N′-(3-methylphenyl)urea]
